{"source": "patent US11285132B2", "about": "“Uses of indolinone compounds” (Oncternal Therapeutics, Inc., priority 2016, dated 2022)", "key": {"snoRNAs": {"system": "snoRNAs", "assay": "Gene expression profiling (Illumina HumanHT 12) of ABC DLBCL cell lines", "assay_type": "cell-based", "conditions": "500 nM, 4-8 h; two ABC DLBCL cell lines", "experimental": "(§1) Cell lines were exposed to YK-4-279 or TK-216, alone or in combination with other compounds, for 72 h using a Tecan D300e Digital Dispenser and 96 well plates. Cell proliferation was measured with MTT. Synergy was determined with the Chou-Talalay combination index. Gene expression profiling (GEP) was performed with the Illumina HumanHT 12 Expression BeadChips. In vivo studies were done in NOD-SCID mice and treatments started with 60 mm3 tumor volumes sc.\nWith the aim to understand the mechanism of action of YK-4-279 and TK-216, the baseline RNA expression levels of the different ETS factors were correlated with sensitivity to the drugs. SPIB was the gene presenting the most significant negative correlation with both YK-4-279 and TK-216, especially among the ABC DLBCL cell lines (P<0.05). SPIB is a known oncogene for ABC DLBCL (Lenz et al, PNAS 2008) and is involved in the response to lenalidomide in ABC DLBCL (Yang et al, Cancer Cell 2012). YK-4-279 inhibits the binding of EWS1-FLI1 to the helicases RHA and DDX5 (Selvanathan et al, PNAS 2012). Thus, it was assessed whether YK-4-279 and TK-216 can have a similar effect on SPIB and whether they induce cellular effects similar to lenalidomide. […] In ABC DLBCL, the ETS inhibitor YK-4-279 and its clinical derivative TK-216 interfere with SPIB and helicases involved in RNA editing. […]"}, "HL-60": {"system": "HL-60", "assay": "72 hr CellTiter-Glo, AML cell line", "assay_type": "cell-based"}, "THP-1": {"system": "THP-1", "assay": "72 hr CellTiter-Glo, AML cell line", "assay_type": "cell-based"}, "MOLM-16": {"system": "MOLM-16", "assay": "72 hr CellTiter-Glo, AML cell line", "assay_type": "cell-based"}, "MOLM-13": {"system": "MOLM-13", "assay": "72 hr CellTiter-Glo, AML cell line", "assay_type": "cell-based"}, "ML-2": {"system": "ML-2", "assay": "72 hr CellTiter-Glo, AML cell line", "assay_type": "cell-based"}, "Kasumi-1": {"system": "Kasumi-1", "assay": "72 hr CellTiter-Glo, AML cell line", "assay_type": "cell-based"}, "SPIB to DDX5": {"biological_target": "T1, SPIB to DDX5 (Homo sapiens, UniProt Q01892)", "T1 construct": "endogenous in cells", "T1 sequence (Q01892 whole entry)": "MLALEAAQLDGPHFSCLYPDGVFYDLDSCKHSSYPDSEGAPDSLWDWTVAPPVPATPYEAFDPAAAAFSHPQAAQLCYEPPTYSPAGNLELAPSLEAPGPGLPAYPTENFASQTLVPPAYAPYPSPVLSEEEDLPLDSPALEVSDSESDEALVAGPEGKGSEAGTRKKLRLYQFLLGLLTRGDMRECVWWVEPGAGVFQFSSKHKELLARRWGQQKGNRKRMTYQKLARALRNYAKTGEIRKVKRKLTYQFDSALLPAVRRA", "assay": "Co-IP of SPIB with helicases in ABC DLBCL cell lines", "assay_type": "cell-based", "conditions": "500 nM, 4-10 h", "source_text": "(§2) With the aim to understand the mechanism of action of YK-4-279 and TK-216, the baseline RNA expression levels of the different ETS factors were correlated with sensitivity to the drugs. SPIB was the gene presenting the most significant negative correlation with both YK-4-279 and TK-216, especially among the ABC DLBCL cell lines (P<0.05). SPIB is a known oncogene for ABC DLBCL (Lenz et al, PNAS 2008) and is involved in the response to lenalidomide in ABC DLBCL (Yang et al, Cancer Cell 2012). YK-4-279 inhibits the binding of EWS1-FLI1 to the helicases RHA and DDX5 (Selvanathan et al, PNAS 2012). Thus, it was assessed whether YK-4-279 and TK-216 can have a similar effect on SPIB and whether they induce cellular effects similar to lenalidomide. […] In ABC DLBCL, the ETS inhibitor YK-4-279 and its clinical derivative TK-216 interfere with SPIB and helicases involved in RNA editing. Moreover, both compounds act similarly to lenalidomide inhibiting IRF4 and upregulating IRF7 and synergize with the IMID in both ABC DLBCL and MCL."}, "SPIB to RHA": {"biological_target": "T2, SPIB to RHA (Homo sapiens, UniProt Q01892)", "T2 construct": "endogenous in cells", "T2 sequence (Q01892 whole entry)": "as above", "assay": "Co-IP of SPIB with helicases in ABC DLBCL cell lines", "assay_type": "cell-based", "conditions": "500 nM, 4-10 h", "source_text": "as §2"}, "DLBCL cell lines": {"system": "DLBCL cell lines", "assay": "Combination with other targeted agents, summary over DLBCL cell lines", "assay_type": "cell-based", "conditions": "with lenalidomide; four DLBCL cell lines (2 ABC, 2 GCB)", "experimental": "(§3) The latter synergism could be linked to the previously mentioned negative trend between TK-216 IC50 values and the presence of BCL2 translocation.\nas §1\nSince lenalidomide is active in mantle cell lymphoma (MCL), the synergism of the combination of TK-216 and lenalidomide was confirmed also in two MCL cell lines."}, "TMD8 cells xenografts": {"system": "TMD8 cells xenografts", "assay": "TMD8 ABC-DLBCL xenograft in NOD-SCID mice", "assay_type": "in vivo", "conditions": "100 mg/Kg, BID; n=9", "experimental": "NOD-Scid mice subcutaneously inoculated with TMD8 cells (15×10^6) were split in two groups respectively treated with TK-216 (100 mg/kg, BID, po, n=9) and control vehicle (n=10). In each box-plot, the line in the middle of the box represents the median and the box extends from the 25th to the 75th percentile (interquartile range, IQ); the whiskers extend to the upper and lower adjacent values (i.e., ±1.5 IQ).\n56 lymphoma cell lines [27 diffuse large B cell lymphoma (DLBCL); 10 mantle cell lymphoma; 6 marginal zone lymphoma; 5 anaplastic large T-cell lymphoma; 8 others] were exposed to TK-216 increasing doses for 72 h using a Tecan D300e Digital Dispenser and 384 well plates. Cell proliferation was measured with MTT. In vivo study was done in NOD-SCID mice; treatments were started with approximately sc 60 mm3 tumor volumes. Sensitivity was not affected by the lymphoma cell of origin (B vs T; activated B cell type DLBCL versus germinal center type DLBCL) or MYC and TP53 status. There was a non-statistically significant trend for lower sensitivity in cell lines bearing BCL2 chromosomal translocation (P=0.07, DLBCL only; P=0.06, all cell lines).\nas §3, §1"}}, "data": [{"smiles": "COc1ccc(C(=O)C[C@@]2(O)C(=O)Nc3c(Cl)ccc(Cl)c32)cc1", "note": "[(S)-YK-4-279]", "values": [{"measurement": "snoRNA expression (GEP)", "setting": "snoRNAs", "value": "important upregulation of multiple snoRNAs"}]}, {"smiles": "N.N.[Cl][Pt][Cl]", "note": "[Cisplatin, reference compound]", "values": [{"measurement": "IC50", "setting": "HL-60", "value": 1.93, "unit": "µM"}, {"measurement": "IC50", "setting": "THP-1", "value": 1.36, "unit": "µM"}, {"measurement": "IC50", "setting": "MOLM-16", "value": 2.19, "unit": "µM"}, {"measurement": "IC50", "setting": "MOLM-13", "value": 0.798, "unit": "µM"}, {"measurement": "IC50", "setting": "ML-2", "value": 1.4, "unit": "µM"}, {"measurement": "IC50", "setting": "Kasumi-1", "value": 4.56, "unit": "µM"}]}, {"smiles": "COc1ccc(C(=O)CC2(O)C(=O)Nc3c(Cl)ccc(Cl)c32)cc1", "note": "(centres unmarked) [YK-4-279, 4,7-dichloro-3-hydroxy-3-(2-(4-methoxyphenyl)-2-oxoethyl)indolin-2-one, reference compound]", "values": [{"measurement": "binding of SPIB to DDX5", "setting": "SPIB to DDX5", "value": "to a lesser extent, to DDX5 was decreased"}, {"measurement": "binding of SPIB to RHA", "setting": "SPIB to RHA", "value": "decreased"}, {"measurement": "combination of YK-4-279 plus lenalidomide", "setting": "DLBCL cell lines", "value": "synergism in both ABC DLBCL"}, {"measurement": "tumor growth compared with control group", "setting": "TMD8 cells xenografts", "value": "reduction in tumor growth"}]}]}
